This note sets out measurements from US5498632A, “Esters of acyl carnitines with long-chain aliphatic alcohols and pharmaceutical compositions containing same having antibacterial activity” (Sigma-Tau Industrie Farmaceutiche Riunite S.p.A., priority 1992, dated 1996).

In general, MIC refers to the least concentration at which growth counts as inhibited.

For data set [1], the system named is lymphoid organs (spleen and thymus), splenocytes. The data set can be described thus: Test 3: body, spleen and thymus weight and splenocyte concentration. The following applies: 100 mg/kg/day for 5 consecutive days, oral. Type of data set: in vivo, mouse (male B6 D2 F1). The method, then:
Evaluation of the effect of repeated oral administrations of ST 722 on the body, spleen and thymus weight, and on the splenocyte concentration in mice.
Male B6 D2 F1 mice (C. River) aged 10 weeks (5 animals each group) were orally treated with the substance ST 722 at the dose of 100 mg/kg/day for 5 consecutive days. Twenty-four hours after the last administration, the animals were sacrificed, the organs removed and weighed, and the splenocyte number determined.

For a further data set, the system named is Gram- bacterial strains. The data set can be described thus: Mean MIC in broth and resistant strain number, Gram- strains. The following applies: 18 h; Gram- strains; versus susceptible strains; read-out: Mean MIC values. Type of data set: cell-based. In short, it runs like this: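 Minimal inhibitory concentrations come from a standard microdilution test in Mueller-Hinton broth. Cells are seeded at 5.0×10^4 CFU/ml final and exposed for 18 h at 37 °C.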

As to `CCCCCCCCCCCOC(=O)CC(C[N+](C)(C)C)OC(=O)CC(C)C` [ST 722, Isovaleryl-L-Carnitine Undecyl Ester Chloride], in data set [1], the Body weight amounted to 26.50 ± 0.53 g, the Spleen weight was 73.25 ± 3.84 mg, the Thymus weight is given as 38.80 ± 3.01 mg and the “specific immunotoxic effects on the considered parameters” value is listed as “lack of specific immunotoxic effects”. The MIC with Gram- bacterial strains amounted to 35.7 mg/L.
